The values below come from patent publication US20150366523A1, “NEURONAL IMAGING AND TREATMENT” (priority 2013, published 2015).

In one series the test system is prostate stromal cells. The following applies: in vitro; cited from earlier work.
For series [1], the system named is adrenergic synapses of the sympathetic nervous system. The series is described as follows: SPECT imaging of I-123-radiolabeled mIBG distribution in the heart, combined with x-ray CT. The class given is in vivo. The following applies: human patient, I-123-mIBG, D-SPECT plus CT. How it is done:
A human patient was administered I-123-radiolabeled mIBG, a radioactive tracer for adrenergic synapses of the sympathetic nervous system. An image based on mIBG distribution was obtained by SPECT using a D-SPECT® Cardiac Imaging System (Spectrum Dynamics, Israel). The anatomy of the heart was determined by performing x-ray CT imaging and segmenting the obtained x-ray CT images. The x-ray CT data was then combined with the SPECT data so as to construct an image showing mIBG distribution in the heart.

Regarding `NC[C@H](O)c1ccc(O)c(O)c1` [Norepinephrine, norepinephrine], the “mitogenic effect on prostate stromal cells” value with prostate stromal cells is given as “direct mitogenic effect”.

`N=C(N)NCc1cccc(I)c1` [mIBG, m-iodobenzylguanidine]: in series [1] (left atrium, FIGS. 6A-6D), the “mIBG activity in left atrium (site of maximal activity level)” value is given as “maximal activity level in the left inferior pulmonary vein”. Moreover, in series [1] (right ventricle, FIGS. 8A-8B), the “mIBG activity in right ventricle (site of maximal activity level)” value was “maximal activity level in the interventricular septum”.
